Laboratory results from publication PMC5830399, “Aggregating sequences that occur in many proteins constitute weak spots of bacterial proteostasis” (Nature Communications, 2018).
Converted amounts (≈) assume the structure as drawn. Like-named read-outs stand apart in the source and are kept apart here. Peptide text beside a SMILES is read from it.

Tests used:
[1] = test system: E. coli O157:H7; format: cell-based, Escherichia coli
Method: (§1) The MICs of active peptides were determined via the Broth microdilution assay according to the EUCAST guideline, which was performed in 96-well polystyrene flat bottom microtiter plates (BD Biosciences). Briefly, a single colony was inoculated into 5 mL LB medium and grown to the end-exponential growth phase in a shaking incubator at 37 °C. Cultures were subsequently diluted to an OD600 (optical density) of 0.002 ([…]) in fresh LB medium. One hundred microliters of LB medium with different concentration of peptides ranging from 100 to 0.75 µg/mL were serially diluted to the sterile 96-well plate (at least three wells in each plate). Afterwards, 100 µL of the diluted bacteria were pipetted into 96-well plates containing different concentration of peptides. In each plate, the grown bacteria with the maximum concentration of carrier and medium were considered as positive and negative controls, respectively. Thereafter, 96-well plates were statically incubated overnight at 37 °C to allow bacterial growth. OD was measured at 590 nm for 1 s using a multipurpose ultraviolet–visible plate reader, and the absorbance of the growth bacteria was measured using a Perkin Elmer spectrophotometer (1420 Multilabel Counter Victor 3).

[2] = test system: E. coli O157; format: cell-based, Escherichia coli; details: HPLC-purified peptide
Source text: In order to investigate whether APR redundancy does result in proteostatic collapse, we selected resynthesized and high-performance liquid chromatography (HPLC)-purified four positive peptides from the screen, P2, P5, P14, and P105, as well as three negative peptides, P3, P4, and P11, and confirmed their MIC and minimum bactericidal concentration (MBC) values (Table 1). […] These IBs, which are also called large polar aggregates, could be stained with pentameric formyl thiophene acetic acid (pFTAA, Fig. 1j and supplementary Fig. 3), an extensively characterized amyloid-specific dye[20]–[22], which specifically binds to amyloid-like aggregates as well as disease-associated protein IBs[22]. This IB-staining pattern could be observed for all bactericidal peptides, but not for any of the other peptides, although some other pFTAA-positive structures could be discerned (Supplementary Fig. 3). We confirmed the cross-β-structure content of IB using thioflavin-T staining and correlative atomic force microscopy nanoimaging and Fourier transform infrared spectroscopy (Supplementary Note 2 and Supplementary Fig. 4).

[3] = test system: E. coli K-12 BW25113; format: cell-based, Escherichia coli
Method: (§2) If the bactericidal effect of P2 is indeed mediated by a loss of protein homeostasis, the cellular chaperone machinery would be expected to counteract or limit the effect of the peptide. […] To ensure that this effect was not due to the reduced overall viability of the dnaK deletion strain, we also tested the MIC value at 30 °C and obtained the same result (MIC = 6 μg/mL). This confirms that the direct inhibition of chaperones and proteases is not the principal mechanism of action of P2. […] The deletion strains with the strongest effect largely matched those found in the IBs by MS, including those of the cotranslationally acting chaperones TF (tig), dnaK (Hsp70 family), and its cochaperone dnaJ, as well as the small Hsps hchA (Hsp31), hslO (Hsp33), and ipbA (α-crystallin family). The disaggregase clpB and the aggregation-controlling protease lon also had strong effects.
as §1
Knockout chaperon strains were purchased from Dharmacon E. coli Keio knockout collection, which contains a set of single-gene deletion mutants for chaperone E. coli K-12 genes. Each deleted gene has been replaced with a kanamycin (30 μg/ mL) resistance cassette.

[4] = test system: E. coli BL21; format: cell-based, Escherichia coli
Method: as §2, §1
Chaperone co-expression plasmids were purchased from Takara set (catalog# 3340), which consists of five different plasmids that contain chaperone plasmids developed by HSP Research Institute Inc. Plasmids were transformed into competent E. coli BL21. The co-expression chaperone strains are chloramphenicol selective of chaperone plasmid (20 μg/mL), and chaperone inducer depending on the chaperone plasmid used. pG-KJE8 (DnaK-dnaJ-grpE araB groES-groEL) induced by L-arabinose (0.5 mg/mL), tetracycline (1–5 ng/mL), pGro7 (groES-groEL) induced by L-arabinose (0.5 mg/mL), pKJE7 (dnaK-dnaJ-grpE) induced by L-arabinose (0.5 mg/mL), pG-Tf2 (groES-groEL-tig) induced by tetracycline (1–5 ng/mL), and pTf16 (tig) induced by L-arabinose (0.5 mg/mL).

[5] = test system: human erythrocytes; test: In vitro hemolytic activity test; format: cell-based; details: 1 h 37 °C
Method: The hemolytic activities of peptides were determined by hemolysis against human erythrocytes. Pooled fresh blood was obtained from healthy volunteers (Red Cross Flanders) and erythrocytes were collected by centrifugation 1,000 × g for 5 min (anticoagulated by EDTAK). The pellet was washed three times with phosphate-buffered saline (PBS) and was diluted to a concentration of 8% in PBS. One hundred microliters of 8% red blood cells solution was mixed with 100 µL of serial dilutions of peptides in PBS buffer in 96-well plates (BD Biosciences). The reaction mixtures were incubated for 1 h at 37 °C. Thereupon, the plate was centrifuged for 10 min at 1,000 × g and 100 µL of supernatant was transferred to a sterilized 96-well plate (BD Biosciences, flat bottom). The release of hemoglobin was determined by measuring the absorbance of the supernatant at 405 nm. […] Erythrocytes in 1% Triton and maximum used concentration of vehicle were used as the control of 100 and 0% hemolysis, respectively.

[6] = test system: Swiss mice; test: In vivo toxicity test; parameters: species or system mouse; details: Swiss female mice, 30 mg/kg IP once a day for 18 days (Supplementary Note 8)
Method: The procedures used in the assays were approved by the local Animal Ethics Committee and conform to international standards of animal welfare (Approval P067/2015 of the Ethical Committee of KULeuven). A safe concentration of peptides of […] was used for this experiment.
Briefly, 5–6-week-old Swiss females were divided into […] (six animals per group) and administered 30 mg/kg of P2 (group A) or vehicle (physiological water pH 7.5) (group B) once a day for 18 days via IP injection. During the treatment period, the clinical, physiological, and behavioral parameters, including body weight, food and water consumption, body condition score, home cage activity, and locomotion were constantly monitored and recorded.
Three days after the last administration, animals were anesthetized and blood was collected using a standard retro-orbital puncture from each animal. Next, the mice sacrificed and underwent complete necropsy with gross examination and organ weights. The organs (heart, liver, spleen, kidney, bone marrow, brain, lung) were sampled and immersed in fixative in 4% paraformaldehyde. […] Five-micrometer-thick sections taken from these blocks (Thermo Scientific Microm HM355S microtome) were then stained with hematoxylin and eosin (Leica ST5010 Autostainer XL) and evaluated under a Leica DM 2500 light microscope by a board-certified veterinary pathologist. […]

CC(C)C[C@H](NC(=O)CNC(=O)[C@H](CCCNC(=N)N)NC(=O)[C@@H]1CCCN1C(=O)[C@H](CCCNC(=N)N)NC(=O)[C@H](CCCNC(=N)N)NC(=O)[C@@H](NC(=O)[C@H](CC(C)C)NC(=O)[C@H](C)NC(=O)[C@H](CC(C)C)NC(=O)CNC(=O)[C@H](CC(C)C)NC(=O)CNC(=O)[C@@H](N)CCCNC(=N)N)C(C)C)C(=O)NCC(=O)N[C@@H](CC(C)C)C(=O)N[C@@H](C)C(=O)N[C@@H](CC(C)C)C(=O)N[C@H](C(=O)N[C@@H](CCCNC(=N)N)C(=O)N[C@@H](CCCNC(=N)N)C(=O)O)C(C)C [P2] (H-RGLGLALVRRPRGLGLALVRR-OH)
MIC ([1]; E. coli O157(:H7), HPLC-purified peptide, broth microdilution (EUCAST), LB, overnight 37 °C, OD 590 nm): 6 µg/mL (≈ 2.61 µM) | IC50, concentration at which bacterial growth is 50% inhibited ([1]; E. coli O157:H7): 1.5 µg/mL (≈ 0.652 µM) | MBC [2]: 6 µg/mL (≈ 2.61 µM) | MIC ([3]; KEIO WT): 12 µg/mL (≈ 5.22 µM) | MIC ([3]; dnaK deletion strain, tested at 30 °C): 6 µg/mL (≈ 2.61 µM) | MIC ([3]; gene deletion ∆ clpA): 12 µg/mL (≈ 5.22 µM) | MIC ([3]; gene deletion ∆ clpB): 12 µg/mL (≈ 5.22 µM) | MIC ([3]; gene deletion ∆ clpP): 12 µg/mL (≈ 5.22 µM) | MIC ([3]; gene deletion ∆ clpS): 12 µg/mL (≈ 5.22 µM) | MIC ([3]; gene deletion ∆ clpX): 12 µg/mL (≈ 5.22 µM) | MIC ([3]; gene deletion ∆ dnaJ): 12 µg/mL (≈ 5.22 µM) | MIC ([3]; gene deletion ∆ dnaK): 6 µg/mL (≈ 2.61 µM) | MIC ([3]; gene deletion ∆ groL): 12 µg/mL (≈ 5.22 µM) | MIC ([3]; gene deletion ∆ hchA): 6 µg/mL (≈ 2.61 µM) | MIC ([3]; gene deletion ∆ hslO): 12 µg/mL (≈ 5.22 µM) | MIC ([3]; gene deletion ∆ htpG): 12 µg/mL (≈ 5.22 µM) | MIC ([3]; gene deletion ∆ ibpA): 12 µg/mL (≈ 5.22 µM) | MIC ([3]; gene deletion ∆ ibpB): 12 µg/mL (≈ 5.22 µM) | MIC ([3]; gene deletion ∆ lon): 12 µg/mL (≈ 5.22 µM) | MIC ([3]; gene deletion ∆ sulA): 12 µg/mL (≈ 5.22 µM) | MIC ([3]; gene deletion ∆ tig): 12 µg/mL (≈ 5.22 µM) | MIC ([4]; BL21, plasmid pG-KJE8, overexpressed dnaK-dnaJ-grpE groES-groEL): 25 µg/mL (≈ 10.9 µM) | MIC ([4]; BL21, plasmid pG-Tf2, overexpressed groES-groEL-tig): 25 µg/mL (≈ 10.9 µM) | MIC ([4]; BL21, plasmid pGro7, overexpressed groES-groEL): 25 µg/mL (≈ 10.9 µM) | MIC ([4]; BL21, plasmid pKJE7, overexpressed dnaK-dnaJ-grpE): 25 µg/mL (≈ 10.9 µM) | MIC ([4]; BL21, plasmid pTf16, overexpressed tig): 25 µg/mL (≈ 10.9 µM) | MIC ([4]; BL21 wt, no plasmid): 25 µg/mL (≈ 10.9 µM) | LC50, concentration inducing 50% lysis of human erythrocytes [5]: 1,100 μg/mL | tolerability in mice [6]: tolerated P2 treatments well
